Laboratory results published in patent publication US11674967B2, “Method of identifying potential inhibitors of APO TNFα trimers” (UCB BIOPHARMA SRL, priority 2015, dated 2023).

Target: T1, human TNFα trimer (Homo sapiens, UniProt P01375)
T1 construct: His6Smt-tag (N, cleaved yes); made in house; host or cells: E. coli (vector pEMB54)
Assay: RMSD of crystal structure of compound-bound TNFα trimer to Reference Structure Compound 34
Settings: Cα atoms of β-sheet residues, all three subunits, PyMOL
Protocol: Cells were pre-cultured at 37° C. in rich media, induced with the addition of 0.1% arabinose and allowed to express overnight at 25° C. in vector pEMB54. This vector introduces a cleavable N-terminal His6Smt-tag. The cells were lysed and purified by Ni-NTA chelate chromatography. The fusion protein was eluted with buffer containing imidazole and cleaved by the addition of protease. The final cleaved TNFα protein was purified by a subtractive Ni chelate chromatography step to remove the fusion tag and further purified by size exclusion chromatography to remove the remaining impurities. The final TNFα product was typically concentrated to 20.0 mg/ml and flash frozen in liquid nitrogen.
Purified human TNF[…] (20.0 mg/ml, VC 2043) was diluted to 4-7 mg/ml in 10 mM HEPES pH 7.5, 150 mM NaCl buffer followed by overnight incubation at 4° C. with 0.3-0.5 mM compound (1-2 molar excess). The TNF[…] compound complexes were crystallized by sitting drop vapor diffusion by mixing 0.5 μl of complex with 0.5 μl of 21.44% PEG 3350, 100 mM Tris, pH 9.0 (UCB1474433); or 22.0% PEG 3350, 100 mM glycine, 100 mM Tris, pH 8.5 (UCB1480595); or 25.6% PEG 3350, 100 mM Tris, pH 8.3, 3% xylitol (UCB5143079) or other formulation with varying precipitant concentration or additives over 100 μl of the same crystallization solution. Other formulations for other compounds include a range of PEG 3350 of 8-28%. Other PEG-like additives include PEG 1000 (8-18%) or PEG 2000 (10-13%). Other additives include MPD (5-13%) or 200 mM NaCl. Other buffers include 100 mM Hepes (pH 7-8), 100 mM Tris or bis-Tris (pH 6.7-9.0). Other non-PEG 3350 crystallization solutions consist of PEG 2000 (14-19%), 100 mM Hepes, pH 8, 25 mM arginine; or 17% PEG 10000, 200 mM ammonium acetate, 100 mM bis-Tris, pH 5.5; or 30% PEG 2000 MME, 100 mM sodium acetate, 100 mM Mes, pH 6.5.
Crystals were briefly soaked in ethylene glycol and/or vitrified directly in liquid nitrogen for data collection.
X-ray diffraction data were collected from a synchrotron source at a wavelength, most frequently, of 0.976484 Å and recorded on CCD detector. […] The structure of the human TNF[…] (VC 2043) complexed with compound was solved by molecular replacement using Phaser with input model of 1TNF. […] Iterative manual model building using Coot (Emsley and Cowtan, 2004) and Refmac (Murshudov et al., 1997) continued until R and Rfree converged. […] The resolution of the structures was most frequently around 2.15 Å.
Root mean squared deviation (RMSD) calculations were carried out to ascertain the distance of each of the crystal structures of distorted TNFα trimer to a reference structure.
RMSD calculations were done using the program PyMOL (www.pymol.org). In this example version 1.7. was used. The cmd.rms PyMOL command was used with defined pairs of atoms. The atoms used were the backbone Ca's of certain residues within the β-strands of TNFα. The residue numbers used are shown below:
These residue numbers are those within the published structure of TNFα with PDB code 1A8M and within the distorted TNFα trimer structures of this invention. The residue numbers are also according to the sequence of SEQ ID NO:36. The residues in each of the three chains with the TNFα structures, (labelled A, B, and C according to our instructions) were used.
The command cmd.rms was used with the following arguments:
rms=cmd.rms(“(moving)”, “(target)”, matchmaker=4, quiet=0, cycles=0)
where “(moving)” is the selection of atoms in a given TNFα structure and “(target)” is the selection of equivalent atoms within the reference structure.
The RMSD was calculated for each structure against all others. The “representative structure” or “Reference Structure” was chosen to be the one with the lowest sum RMSD to all others—the structure “Compound 34” or “Compound34.pdb”.
Reference Structure (Compound 34) and Query Structure (Compound 64) were overlaid (see FIG. 17 with Reference Structure emboldened) by: • 1. […]

T1 sequence (P01375 with tags, fused parts or gaps): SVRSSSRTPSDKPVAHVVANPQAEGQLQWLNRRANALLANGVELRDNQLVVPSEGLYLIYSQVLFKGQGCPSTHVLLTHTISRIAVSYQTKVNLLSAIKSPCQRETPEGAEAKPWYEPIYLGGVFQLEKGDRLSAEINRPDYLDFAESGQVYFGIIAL

SMILES | RMSD (Å) with Compound 34 [Å]
COCCNc1ncc(-c2ccc3nc(C)n(Cc4ccccc4OC(F)F)c3c2)cn1 [Compound 44] | 0.25
Clc1ccc(Cl)c(Cn2c(Cc3ccncc3)nc3ccccc32)c1 [Compound 8] | 0.30
Cc1nc2ccc(-c3cnc(N4CCNC(=O)C4)nc3)cn2c1[C@@H](O)c1ccccc1OC(F)F [Compound 56] | 0.24
N#Cc1ccc2nc(Cc3ccc(NC(N)=O)cc3)n(Cc3ccccc3OC(F)F)c2c1 [Compound 30] | 0.23
Cc1nc2ccc(-c3ccc(N4CCNCC4)nc3)cc2n1Cc1ccccc1OC(F)F [Compound 32] | 0.24
CC(c1ccccc1)n1c(COc2cccc(N3CCCC3=O)c2)nc2ccc(C#N)cc21 (stereo not drawn) [Compound 42] | 0.21
Cc1ccc(C)c(Cn2c(Cc3ccncc3)nc3ccc(-c4ccncc4)cc32)c1 [Compound 18] | 0.31
COc1ccc(-c2ccc3nc4c(n3c2)C(c2ccccc2)OCC4)cn1 (stereo not drawn) [Compound 48] | 0.30
Cc1ccc(C)c(C2CCc3nc4ccc(Br)cc4n32)c1 (stereo not drawn) [Compound 49] | 0.28
Cc1ccc(C)c(Cn2c(COCc3ccccc3[N+](=O)[O-])nc3ccccc32)c1 [Compound 17] | 0.44
Cc1cc(OCc2nc3ccc(C#N)cc3n2C(C)c2ccccc2)no1 (stereo not drawn) [Compound 41] | 0.20
FC(F)Oc1ccccc1C1CCc2nc3ccc(Br)cc3n21 (stereo not drawn) [Compound 52] | 0.26
Cc1ccc(C)c(Cn2c(CO)nc3ccc(-c4ccc(N(C)C)nc4)cc32)c1 [Compound 14] | 0.30
COc1ccc(OCc2nc3ccc(Br)cc3n2Cc2nc(C)sc2Cl)cn1 [Compound 25] | 0.34
N#Cc1ccc2nc(COc3ccc(C(N)=O)nc3)n(Cc3ccccc3OC(F)F)c2c1 [Compound 27] | 0.24
COc1ccc(-c2ccc3nc(Cc4ccc(S(C)(=O)=O)cc4)n(C(C)c4ccccc4)c3c2)cn1 (stereo not drawn) [Compound 45] | 0.24
N#Cc1ccc2nc(Cc3csc(N4CCNC4=O)n3)n(Cc3ccccc3OC(F)F)c2c1 [Compound 31] | 0.24
CS(=O)(=O)c1ccc(-c2ccc3nc4n(c3c2)C(c2ccccc2OC(F)F)CC4)cc1 (stereo not drawn) [Compound 61] | 0.28
Cc1ccc(C)c(Cn2c(COCc3ccncc3)nc3ccccc32)c1 [Compound 7] | 0.25
Cc1ccc(C)c(Cn2c(C(O)c3ccc(N(C)C)cc3)nc3ccccc32)c1 (stereo not drawn) [Compound 4] | 0.21
COCc1nc2ccc(-c3ccc(N4CCNC(=O)C4)nc3)cc2n1Cc1ccccc1OC(F)F [Compound 38] | 0.17
Cc1nc(Cn2c(COc3ccc(C(N)=O)cc3)nc3ccc(-c4cc[n+]([O-])cc4)cc32)cs1 [Compound 22] | 0.23
Cc1nc(Cn2c(COc3ccc(C(N)=O)cc3)nc3ccc(-c4ccncn4)cc32)cs1 [Compound 23] | 0.24
Cc1nc2cnc(-c3ccc(=O)[nH]c3)cn2c1Cc1cc(Cl)ccc1Cl [Compound 26] | 0.38
N#Cc1ccc2nc(COc3cccc(N4CC(O)CC4=O)c3)n(Cc3ccccc3OC(F)F)c2c1 (stereo not drawn) [Compound 37] | 0.22
Cc1ccc(C)c(Cn2c(COc3ccc4ccncc4c3)nc3ccccc32)c1 [Compound 16] | 0.47

SMILES | RMSD (Å) with Compound 34 [Å]
CNC(=O)c1ccc(OCc2nc3ccc(-c4ccncc4)cc3n2Cc2cc(Cl)ccc2Cl)cc1 [Compound 20] | 0.22
Cc1ccc(C)c(Nn2c(C(O)c3ccncc3)nc3ccccc32)c1 (stereo not drawn) [Compound 9] | 0.28
N#Cc1ccc2nc(COc3cccc(N4CCCC4=O)c3)n(Cc3cc(Cl)ccc3Cl)c2c1 [Compound 29] | 0.24
Cc1cc2nc(C)c(Cc3ccccc3OC(F)F)n2cc1-c1cnc(NCC2(C(=O)O)CC2)nc1 [Compound 54] | 0.32
Cc1ccc(C)c(Cn2c(C(O)c3ccncc3)nc3ccc(-c4cn[nH]c4)cc32)c1 (stereo not drawn) [Compound 12] | 0.27
N#Cc1ccc2nc(Cn3nnc(N4CCOCC4)n3)n(Cc3ccccc3OC(F)F)c2c1 [Compound 40] | 0.17
CC(c1ccccc1OC(F)F)n1c(COc2cccc(N3CCCC3=O)c2)nc2ccc(Br)cc21 (stereo not drawn) [Compound 50] | 0.23
Cc1nc2ccc(-c3cnc(N4CCNC(=O)CC4C)nc3)cn2c1Cc1ccccc1OC(F)F (stereo not drawn) [Compound 55] | 0.26
NC(=O)c1ccc(OCc2nc3ccc(-c4cc[n+]([O-])cc4)cc3n2Cc2cc(Cl)ccc2Cl)cc1 [Compound 21] | 0.22
COCc1nc2ccc(-c3ccc(N4CCN(C(C)=O)CC4)nc3)cc2n1Cc1ccccc1OC(F)F [Compound 33] | 0.14
N#Cc1ccc2nc(COc3cccc(N4CCC(O)C4=O)c3)n(Cc3ccccc3OC(F)F)c2c1 (stereo not drawn) [Compound 35] | 0.16
Cc1nc2ccc(-c3cnn(C)c3)cn2c1Cc1cc(Cl)ccc1Cl [Compound 24] | 0.28
Cc1nc2ccc(-c3ccc(N4CCNCC4)nc3)cn2c1C(O)c1ccccc1OC(F)F (stereo not drawn) [Compound 47] | 0.26
Cc1ccc(C)c(Cn2c(Cc3ccncc3)nc3ccc(-c4ccc(CN5CCCC5)cc4)cc32)c1 [Compound 19] | 0.21
Cc1nc2ccc(-c3cnc(N4CCNC(=O)CC4)nc3)cn2c1C(C)c1ccccc1OC(F)F (stereo not drawn) [Compound 57] | 0.30
CS(=O)(=O)c1ccc(Cc2nc3ccc(-c4ccc(S(C)(=O)=O)cc4)cc3n2Cc2ccccc2OC(F)F)cc1 [Compound 62] | 0.16
Cc1ccc(C)c(Cn2c(Cn3cc(-c4cccc(O)c4)nn3)nc3ccccc32)c1 [Compound 6] | 0.21
COC(=O)CCc1ccc2nc(C(O)c3ccncc3)n(Cc3cc(C)ccc3C)c2c1 (stereo not drawn) [Compound 13] | 0.36
Cc1nc2ccc(-c3cnc(N4CCC(C(=O)O)CC4)nc3)cn2c1Cc1ccccc1OC(F)F [Compound 46] | 0.27
FC(F)Oc1ccccc1C1NCCc2nc3ccc(-c4cnc(N5CCOCC5)nc4)cn3c21 (stereo not drawn) [Compound 51] | 0.34
Cc1nc2cc(F)c(-c3cnc(N4CC(O)(C(F)(F)F)C4)nc3)cn2c1[C@@H](O)c1ccccc1OC(F)F [Compound 64, 1-[5-[3-[(S)-[2-(difluoromethoxy)phenyl]-hydroxy-methyl]-7-fluoro-2-methyl-imidazo[1,2-a]pyridin-6-yl]pyrimidin-2-yl]-3-(trifluoromethyl)azetidin-3-ol] | 0.22
CC(c1ccccc1OC(F)F)n1c(COc2cccc(N3CCCC3=O)c2)nc2ccc(Br)cc21 (stereo not drawn) [Compound 53] | 0.24
Cc1ccc(C)c(Cn2c(C(O)c3ccncc3)nc3cc(-c4ccc(N5CCNCC5)cc4)ccc32)c1 (stereo not drawn) [Compound 11] | 0.30
Cc1ccc(C)c(Cn2c(C(N)c3ccccc3)nc3ccccc32)c1 (stereo not drawn) [Compound 10] | 0.25
N#Cc1ccc2nc(COc3cccc(N4CC(O)CC4=O)c3)n(Cc3ccccc3OC(F)F)c2c1 (stereo not drawn) [Compound 36] | 0.21
